This note sets out measurements from ChEMBL document CHEMBL6182924, “Discovery of a Novel and Potent MET Transcription Inhibitor Targeting Promoter G-Quadruplex for the Treatment of NSCLC” (J Med Chem, 2025).

Broadly, the IC50 is the concentration at which inhibition is half-maximal. Lower therefore signals greater potency.

Each structure is given as a SMILES string. Active and inactive are the calls of the source. No cut-off for these calls is given here.

Test [1] concerns A549. Kind of test: Antiproliferative activity against human A549 cells incubated for 3 days by CCK-8 assay. As to conditions: A549, 72 h. Format: functional, cell-based. On the technique in general: Tetrazolium dyes change colour on reduction, which living cells bring about.
The subject of test [2] is Quadruplex DNA. Kind of test: Binding affinity to G-quadruplex DNA (unknown origin) at 5 uM by fluorescence quenching analysis. Format: nucleic-acid assay.
The test system of test [3] is A549. In words: Downregulation of c-MYC expression in human A549 cells up to 2000 nM incubated for 72 hrs by Western blot analysis. Format: functional, cell-based. In general terms: In western blotting, separated proteins are transferred to a membrane and probed.
In test [4] the test system is A549. In words: Antitumor activity against human A549 cells xenografted in BALB/c mouse assessed as tumor growth inhibition at 20 mg/kg, po administered once a day and measured up to 24 days. Format: functional. As to conditions: A549, 576 h, time <= 24 day, read-out: TGI. On the technique in general: A xenograft is tissue or cells of one species grown in another, often human tumour cells in immunodeficient mice.

Test [5] has as its system BaF3. In words: Antiproliferative activity against mouse BaF3 cells harboring TPR-MET L1195V mutant incubated for 24 hrs by CCK-8 assay. Format: functional, cell-based. Particulars: BaF3, 24 h.
Test [6] relates to BaF3. In words: Antiproliferative activity against mouse BaF3 cells harboring TPR-MET […] mutant incubated for 24 hrs by CCK-8 assay. Format: functional, cell-based. Particulars: BaF3, 24 h.
Test [7] deals with BaF3. In words: Antiproliferative activity against mouse BaF3 cells harboring TPR-MET D1228N mutant incubated for 24 hrs by CCK-8 assay. Format: functional, cell-based. As to conditions: BaF3, 24 h.

In turn, `N#Cc1cccc(C(=O)Nc2cccc(-c3cc4cccnc4c4ncccc34)c2)c1` showed an IC50 in test [1] of 2.51 µM.

The compound `O=C(Nc1cccc(-c2cc3cccnc3c3ncccc23)c1)c1ccc(Cl)nc1` registered an IC50 in test [1] of 3.44 µM.

`O=[N+]([O-])c1ccc(-c2ccc(-c3nc4c5cccnc5c5ncccc5c4[nH]3)o2)cc1` had an IC50 in test [1] of 3.2 µM.

The compound `Fc1cccc(-c2ccc(-c3nc4c5cccnc5c5ncccc5c4[nH]3)o2)c1` showed an IC50 in test [1] of 1.43 µM.

As for `c1cnc2c(c1)c1nc(-c3ccc(-c4ccc5c(c4)OCCO5)o3)[nH]c1c1cccnc12`, in test [1], half-maximal inhibition (IC50) was put at 0.71 µM.

As to `COc1cc(-c2nc3c4cccnc4c4ncccc4c3[nH]2)cc2c1OCO2`, in test [2], the result was Active.

In turn, `N#Cc1cccc(-c2ccc(-c3nc4c5cccnc5c5ncccc5c4[nH]3)o2)c1` returned an IC50 in test [1] of 1.05 µM.

As for `COc1cccc(C(=O)Nc2cccc(-c3cc4cccnc4c4ncccc34)c2)c1OC`, the IC50 in test [1] was determined as 1.2 µM.

As to `Nc1cccc(-c2cc3cccnc3c3ncccc23)c1`, the outcome in test [2] was Active.

Regarding `Cn1ccc(-c2ccc(-c3nc4c5cccnc5c5ncccc5c4[nH]3)o2)n1`, inhibition in test [1] was half-maximal at 4.95 µM (IC50).

As to `Cn1ccc(-c2csc(-c3nc4c5cccnc5c5ncccc5c4[nH]3)c2)n1`, in test [1], the midpoint of inhibition, the IC50, lay at 3.72 µM.

In test [1], `Brc1csc(-c2nc3c4cccnc4c4ncccc4c3[nH]2)c1` had an IC50 of 6.1 µM.

Compound `O=C(Nc1cccc(-c2cc3cccnc3c3ncccc23)c1)c1ccc2nccnc2c1` returned an IC50 in test [1] of 0.8 µM. The outcome in test [3] was Active.

As to `COc1cccc(-c2csc(-c3nc4c5cccnc5c5ncccc5c4[nH]3)c2)c1`, in test [1], the IC50 stood at 0.58 µM.

`N#Cc1cccc(-c2csc(-c3nc4c5cccnc5c5ncccc5c4[nH]3)c2)c1` showed an IC50 in test [1] of 6.53 µM. This IC50 is about 11-fold higher than that of the compound before.

Turning to `COc1cc2nccc(Oc3ccc(NC(=O)C4(C(=O)Nc5ccc(F)cc5)CC4)cc3)c2cc1OC` [CABOZANTINIB], the concentration for half-maximal inhibition (IC50) worked out at 4.4 µM in test [1], 0.92 µM in test [5], 3.98 µM in test [6] and 5.84 µM in test [7]. The inhibition in vivo at 20 mg/kg in test [4] amounted to 51.7%.

For `COc1ccc(C(=O)Nc2cccc(-c3cc4cccnc4c4ncccc34)c2)cc1`, the IC50 in test [1] stood at 1.13 µM.

`N#Cc1ccc(-c2ccc(-c3nc4c5cccnc5c5ncccc5c4[nH]3)o2)cc1` had an IC50 in test [1] of 4.9 µM. This IC50 is about 4.3-fold higher than that of the compound before.

Take `O=C(Nc1cccc(-c2cc3cccnc3c3ncccc23)c1)c1ccccc1`: in test [1], the IC50 is 1.79 µM. This IC50 is about 2.7-fold lower than that of the compound before.

In turn, `Brc1ccc(-c2nc3c4cccnc4c4ncccc4c3[nH]2)o1` gave an IC50 in test [1] of 4.47 µM.

For the compound `Oc1ccc(-c2ccc(-c3nc4c5cccnc5c5ncccc5c4[nH]3)o2)cc1`, the IC50 in test [1] amounted to 2.13 µM.

In turn, `c1cnc2c(c1)c1nc(-c3cc(-c4ccc5c(c4)OCCO5)cs3)[nH]c1c1cccnc12` registered an IC50 in test [1] of 0.89 µM.
